Assays:
Type in all cases: functional, organism-based
Rattus norvegicus [1] = assay: Conc in serum of female rat 0.25 hr after administration of dose
Rattus norvegicus [2] = assay: Conc in serum of male rat 4 hr after administration of dose
Rattus norvegicus [3] = assay: Conc in serum of female rat 0.50 hr after administration of dose
Rattus norvegicus [4] = assay: Conc in testes of male 1 hr rat after administration of dose; conditions: Testis
Rattus norvegicus [5] = assay: Conc in brain of male rat 6 hr after administration of dose
Rattus norvegicus [6] = assay: Conc in brain of male rat 1.5h after administration of dose
Rattus norvegicus [7] = assay: Conc in kidney of male rat 6 hr after administration of dose
Rattus norvegicus [8] = assay: Conc in serum of female rat 1 hr after administration of dose
Rattus norvegicus [9] = assay: Conc in ovary of female rat 24 hr after administration of dose; conditions: Female gonad
Rattus norvegicus [10] = assay: Conc in ovary of female rat 1 hr after administration of dose; conditions: Female gonad
Rattus norvegicus [11] = assay: Conc in lung of male rat 24 hr after administration of dose
Rattus norvegicus [12] = assay: Conc in kidney of male rat 24 hr after administration of dose
Rattus norvegicus [13] = assay: Conc in intestine of male rat 24 hr after administration of dose
Rattus norvegicus [14] = assay: Conc in stomach of male rat 0.25 hr after administration of dose
Rattus norvegicus [15] = assay: Conc in lung of male rat 4 hr after administration of dose
Rattus norvegicus [16] = assay: Conc in muscle of male rat 0.75h after administration of dose; conditions: Muscle tissue
Rattus norvegicus [17] = assay: Conc in testes of male rat 6 hr after administration of dose; conditions: Testis
Rattus norvegicus [18] = assay: Conc in ovary of female rat 0.50 hr after administration of dose; conditions: Female gonad
Rattus norvegicus [19] = assay: Conc in liver of male rat after 0.75h administration of dose
Rattus norvegicus [20] = assay: Conc in serum of male rat 6 hr after administration of dose
Rattus norvegicus [21] = assay: Conc in intestine of male rat 1.5h after administration of dose
Rattus norvegicus [22] = assay: Conc in kidney of male rat 3h after administration of dose
Rattus norvegicus [23] = assay: Conc in intestine of male rat 1 hr after administration of dose
Rattus norvegicus [24] = assay: Conc in brain of male rat 24 hr after administration of dose
Rattus norvegicus [25] = assay: Conc in testes of male rat 24 hr after administration of dose; conditions: Testis
Rattus norvegicus [26] = assay: Conc in lung of male rat 1.5h after administration of dose
Rattus norvegicus [27] = assay: Conc in stomach of male rat 24 hr after administration of dose
Rattus norvegicus [28] = assay: Conc in serum of male rat 0.50 hr after administration of dose
Rattus norvegicus [29] = assay: Conc in lung of male rat 0.50 hr after administration of dose
Rattus norvegicus [30] = assay: Conc in muscle of male rat 1.5h after administration of dose; conditions: Muscle tissue
Rattus norvegicus [31] = assay: Conc in muscle of male rat 0.25 hr after administration of dose; conditions: Muscle tissue
Rattus norvegicus [32] = assay: Conc in lung of male rat 1 hr after administration of dose
Rattus norvegicus [33] = assay: Conc in brain of male rat 4 hr after administration of dose
Rattus norvegicus [34] = assay: Conc in muscle of male rat 4 hr after administration of dose; conditions: Muscle tissue
Rattus norvegicus [35] = assay: Conc in ovary of female rat 0.75h after administration of dose; conditions: Female gonad
Rattus norvegicus [36] = assay: Conc in liver of male rat after 0.25 hr administration of dose
Rattus norvegicus [37] = assay: Conc in intestine of male rat 0.75h after administration of dose
Rattus norvegicus [38] = assay: Conc in testes of male rat 0.50 hr after administration of dose; conditions: Testis

## CC(C)c1cc(Cc2cnc(N)nc2N)cc(C(C)C)c1O
Rattus norvegicus [1]
  Concentration: 0.49 µg/g
Rattus norvegicus [2]
  Concentration: 0.42 µg/g
Rattus norvegicus [3]
  Concentration: 0.9 µg/g
Rattus norvegicus [4]
  Concentration: 1.32 µg/g
Rattus norvegicus [5]
  Concentration: 0.05 µg/g
Rattus norvegicus [6]
  Concentration: 0.65 µg/g
Rattus norvegicus [7]
  Concentration: 1.55 µg/g
Rattus norvegicus [8]
  Concentration: 1.09 µg/g
Rattus norvegicus [9]
  Concentration: 0.08 µg/g
Rattus norvegicus [10]
  Concentration: 3.33 µg/g
Rattus norvegicus [11]
  Concentration: 0.1 µg/g
Rattus norvegicus [12]
  Concentration: 0.5 µg/g
Rattus norvegicus [13]
  Concentration: 0.85 µg/g
Rattus norvegicus [14]
  Concentration: 387 µg/g
Rattus norvegicus [15]
  Concentration: 2.3 µg/g
Rattus norvegicus [16]
  Concentration: 2.31 µg/g
Rattus norvegicus [17]
  Concentration: 0.41 µg/g
Rattus norvegicus [18]
  Concentration: 4.06 µg/g
Rattus norvegicus [19]
  Concentration: 23.1 µg/g
Rattus norvegicus [20]
  Concentration: 0.27 µg/g
Rattus norvegicus [21]
  Concentration: 14.9 µg/g
Rattus norvegicus [22]
  Concentration: 4.11 µg/g
Rattus norvegicus [23]
  Concentration: 26 µg/g
Rattus norvegicus [24]
  Concentration: 0.004 µg/g
Rattus norvegicus [25]
  Concentration: 0.15 µg/g
Rattus norvegicus [26]
  Concentration: 7.17 µg/g
Rattus norvegicus [27]
  Concentration: 1.49 µg/g
Rattus norvegicus [28]
  Concentration: 1.12 µg/g
Rattus norvegicus [29]
  Concentration: 8.31 µg/g
Rattus norvegicus [30]
  Concentration: 1.84 µg/g
Rattus norvegicus [31]
  Concentration: 0.44 µg/g
Rattus norvegicus [32]
  Concentration: 11.9 µg/g
Rattus norvegicus [33]
  Concentration: 0.19 µg/g
Rattus norvegicus [34]
  Concentration: 0.67 µg/g
Rattus norvegicus [35]
  Concentration: 4.48 µg/g
Rattus norvegicus [36]
  Concentration: 17.4 µg/g
Rattus norvegicus [37]
  Concentration: 112 µg/g
Rattus norvegicus [38]
  Concentration: 1.07 µg/g

Source: ChEMBL document CHEMBL1124217, “2,4-Diamino-5-benzylpyrimidines and analogues as antibacterial agents. 9. Lipophilic trimethoprim analogues as antigonococcal agents” (J Med Chem, 1988)
